Laboratory results published in US12611425B2, “Compositions and methods for treatment and prevention of pathogens” (WIAB WATER INNOVATION AB, priority 2022, dated 2026).
Read-outs that look alike come from different tables or passages of the source.

How the values were obtained:
S. aureus biofilms = test: In vitro anti-biofilm effect, viable CFU counting; type: cell-based, Staphylococcus aureus; conditions: 1% glutaric acid alone
Method: Test organisms: Pseudomonas aeruginosa or Staphylococcus aureus wild-type strains Biofilm type: 48 hours- or 24 hours-old biofilms grown on semipermeable membranes placed on solidified medium supplemented with 0.5% glucose. In the case of 48 h-old biofilms, the membranes with biofilms were transferred onto fresh plates after 24 h.
Initial viable cell amount: 5×10^9 colony forming units (CFUs)
Treatment method: Membranes with biofilms were transferred to new plates. Eight-10 layers of sterile gauze were placed on the second membrane, and 1 ml of antimicrobial solution was pipetted on the gauze layers. The treatment was carried out at room temperature for 2-to-3 h, or 4-to-6 h. In the case of the 4-to-6 h treatments, the gauze layers were replaced with fresh gauze layers with 1 ml sample solution 2 or 3 h after the treatments had been initiated.
Evaluation method: The gauze layers were discarded, and each membrane with biofilms was transferred into a 15 ml tube containing 5 ml 0.9% NaCl, vortexed for 10 sec., sonicated in an ultrasound bath for 10 min, and vortexed again for 10 sec. Ten-fold serial dilutions were made, and 10 ul of each dilution was spot-plated on LB plates for viable CFU counting.

[1] = cited from earlier work
human rhinovirus (HRV) = conditions: low concentration nasal irrigation solution, in vitro, nasal epithelial cells; cited from earlier work
[2] = cited from earlier work; remark: listed apart in the source
avian influenza virus = conditions: similar formulations, in vitro; cited from earlier work
[3] = test system: bacterial log CFU/g ground chicken ground meat; conditions: separately or in a mixture; cited from earlier work
[4] = Dissolving time of powdered calcium hypochlorite in acetic acid/acetate buffer; type: physicochemical; conditions: 2500 rpm
Method: • I. 58±4 mg of all sizes of the powdered material was, respectively, dissolved in 100 mL 0.25% wt. acetic acid/acetate buffer. Particle size ≤250 μm dissolved within 10 seconds, ≤355 μm within 15 seconds and ≤500 μm within one minute and 25 seconds at 2500 rpm. • II. 58±4 mg of all sizes of the powdered material was, respectively, dissolved in 100 mL 3.0% wt. acetic acid/acetate buffer. Particle size ≤250 μm dissolved within 10 seconds, ≤355 μm within 25 seconds and ≤500 μm within 25 seconds at 2500 rpm. • III. 570±40 mg of all sizes of the powdered material was, respectively, dissolved in 100 mL 0.25% wt. acetic acid/acetate buffer. Particle size ≤250 μm dissolved within 15 seconds, ≤355 μm within 45 seconds and ≤500 μm within one minute and 35 seconds at 2500 rpm. • IV. 570±40 mg of all sizes of the powdered material was, respectively, dissolved in 100 mL 3.0% wt. acetic acid/acetate buffer. Repeated with 3.0% acetic acid/acetate buffer. Particle size ≤250 μm dissolved within 15 seconds, ≤355 μm within 15 seconds and ≤500 μm within 20 seconds at 2500 rpm.

[5] = Powder flow determination (funnel flow, angle of repose); type: physicochemical; conditions: for flowability: 100 g, funnel outflow opening 15 mm
Method: 100 g of powdered calcium hypochlorite of sizes ≤355 μm and ≤500 μm was added, respectively, into a dry funnel (Ø110 mm, diameter of the outflow opening=15 mm), whose bottom opening has been blocked by a plastic cover. The bottom opening of the funnel was unblocked to measure the time needed for the entire sample to flow out. The flowability of particle sizes ≤355 μm and ≤500 μm is, respectively, 35.7 g/s and 37.4 g/s. The angle of repose was calculated as 29.5° and 26.8° for particle sizes 355 μm and ≤500 μm, respectively.

## O=C(O)CCCC(=O)O [glutaric acid]
S. aureus biofilms
  effect on the biofilm: only minor effect

## OCl [hypochlorous acid]
[1]
  pKa: about 7
Human rhinovirus (HRV)
  virus-killing effect: significant virus-killing effect
[2]; basic pH
  standard reduction potential: +0.89
[2]; low pH
  standard reduction potential: +1.49
Avian influenza virus
  effects against avian influenza virus: good effects

## O=C([O-])CCC(=O)O.[Na+] [monosodium succinate]
[3]
  reduction of bacterial log CFU/g: ~2 log

## [Ca+2].[O-]Cl.[O-]Cl [powdered calcium hypochlorite, calcium hypochlorite]
[4]; I: 58±4 mg in 100 mL 0.25% wt. acetic acid/acetate buffer, particle size ≤250 μm
  dissolving time: ≤ 10 s
[4]; I: 58±4 mg in 100 mL 0.25% wt. buffer, particle size ≤355 μm
  dissolving time: ≤ 15 s
[4]; II: 58±4 mg in 100 mL 3.0% wt. acetic acid/acetate buffer, particle size ≤250 μm
  dissolving time: ≤ 10 s
[4]; II: 58±4 mg in 100 mL 3.0% wt. buffer, particle size ≤355 μm
  dissolving time: ≤ 25 s
[4]; II: 58±4 mg in 100 mL 3.0% wt. buffer, particle size ≤500 μm
  dissolving time: ≤ 25 s
[4]; III: 570±40 mg in 100 mL 0.25% wt. acetic acid/acetate buffer, particle size ≤250 μm
  dissolving time: ≤ 15 s
[4]; III: 570±40 mg in 100 mL 0.25% wt. buffer, particle size ≤355 μm
  dissolving time: ≤ 45 s
[4]; IV: 570±40 mg in 100 mL 3.0% wt. acetic acid/acetate buffer, particle size ≤250 μm
  dissolving time: ≤ 15 s
[4]; IV: 570±40 mg in 100 mL 3.0% wt. buffer, particle size ≤355 μm
  dissolving time: ≤ 15 s
[4]; IV: 570±40 mg in 100 mL 3.0% wt. buffer, particle size ≤500 μm
  dissolving time: ≤ 20 s
[5]; particle size 355 μm
  angle of repose: 29.5 °
[5]; particle size ≤355 μm
  flowability: 35.7 g/s
[5]; particle size ≤500 μm
  angle of repose: 26.8 °
  flowability: 37.4 g/s

## CC(=O)C(=O)O [pyruvic acid]
[3]
  reduction of bacterial log CFU/g: ~2 log
